In patent US11865110B2, “Thrombin inhibitors, formulations, and uses thereof” (VERSEON INTERNATIONAL CORPORATION, priority 2018, dated 2024):
Read-outs that look alike come from different tables or passages of the source.

Columns and labels:
Rat plasma stability = type: in vitro ADME; settings: Sprague-Dawley; SD rat plasma, 37° C., time points to 160 min; read-out: Rat Plasma Stability t1/2
Experimental: Alongside a positive control of propantheline bromide, 8 μL of a 1 mM solution of each test compound in DMSO was placed in two wells of a Nunc™ 96-well plate called the “dilution plate.” To one well, 392 μL of HyClone™ water was added and mixed by a pipette. To the other well, 392 μL of mouse or rat plasma stabilized with sodium citrate purchased from Innovative Research was added and mixed by a pipette. The dilution plate was kept covered to reduce solvent evaporation and heated in an incubator at 37° C. At each of the time points enumerated below, the plate was removed from the incubator and 50 μL of the test compound/water or test compound/plasma solutions were transferred to a unique, corresponding well in a “quench plate” (96-well Costar® plate) that contains 150 μL of a quench solution that contains an internal standard (20 uM diclofenac in acetonitrile). The dilution plate was then returned to the incubator. This process was performed at 0, 5, 10, 20, 40, 80, and 160 minutes from the original mixing of the test compounds with the water or plasma in the dilution plate. After the quenching of the 160-minute time point, the quench plate was then centrifuged at 4° C. at 1000×g for 10 minutes. 100 μL of the supernatant of each well were then transferred to corresponding unique wells in a “read plate” (96-well Costar® plate) that were filled with 100 μL of HyClone™ water. The plate was then sealed and analyzed via UHPLC using a 10-μL sample injection through a Phenomenex® Kinetex column pre-equilibrated with the loading buffer (95:5 water:acetonitrile). The parameters were as follows. Mobile Phase A: water, 0.025% formic acid. Mobile Phase B: acetonitrile, 0.025% formic acid. Flow Rate: 0.5 mL/min. […] Half-life (t1/2) times were computed by using a chi-square analysis to fit the peak areas to an exponential decay model for compound concentration as a function of time.

Mouse pharmacokinetics = type: in vivo; settings: plasma, male CD-1 mice; for C0: C0 by extrapolation
Experimental: Mouse pharmacokinetic data were generated as follows. Compounds were administered intravenously (IV) as a single dose via tail vein or orally (PO) as a single dose via gastric gavage to male CD-1 mice with weights between 18 and 25 g. Nominal doses were 1 mg/kg and 5 mg/kg for IV and PO administration, respectively. The doses for IV were formulated by dissolving the test compound in a mixture (v/v/v) of 5% N,N-dimethylacetamide (DMA), 15% Kolliphor® (Solutol®) HS15, and 80% sterile water at a dose concentration of 0.25 mg/mL. Doses for PO were formulated by dissolving the test compound in a mixture (v/v) of 90% Kolliphor® (Solutol®) HS15 and 10% pure ethanol at a dose concentration of 0.25 mg/mL.
Animals were housed in standard holding cages with food and water available ad libitum except for those used for PO dosing, which were fasted overnight prior to dosing. Prior to dosing and at each time point following dosing (5 min (IV only), 15 min, 30 min, 60 min, 120 min, 4 h, 8 h, 12 h, and 24 h), two animals were sacrificed and blood samples were taken in triplicate via cardiac puncture. Plasma was obtained by centrifuge and stored frozen until analyzed by LC-MS/MS using an AB Sciex™ QTrap® 5500 coupled to a Shimadzu Nexera X2 fitted with a Luna® Omega 1.6 μm Polar C18 100 Å, 50×2.1 mm, acquired from Phenomenex®. Samples were compared against a standard curve of the test compound at concentrations ranging from 10,000 to 0.3 ng/mL.
Pharmacokinetic parameters are calculated from mean concentration values using a non-compartmental analysis as described below and as apparent to those of ordinary skill in the art. Concentration at time zero (C0) for the IV was established by the extrapolation of log-linear regression using equal weighting on the first three sample time points. Area under the curve (AUC) values were calculated using linear trapezoidal integration.

[1] = IV single dose 1 mg/kg, read-out: IV AUC
[2] = PO single dose 5 mg/kg, read-out: PO AUC

Row | Structure (SMILES) | half-life at 20 µM (Rat plasma stability) | C0 (Mouse pharmacokinetics; IV single dose 1 mg/kg) | AUC (Mouse pharmacokinetics; [1]) | Cmax (Mouse pharmacokinetics; PO single dose 5 mg/kg) | AUC (Mouse pharmacokinetics; [2])
1 | CC(C)(C)C(=O)n1nc(-c2cccn(CCC(=O)O)c2=O)cc1NCc1ccc(Cl)s1 [Compound 1, 3-[3-(5-{[(5-chlorothiophen-2-yl)methyl]amino}-1-(2,2-dimethylpropanoyl)-1H-pyrazol-3-yl)-2-oxo-1,2-dihydropyridin-1-yl]propanoic acid] | 1.13 to 1.83 h | 6800 ng/mL | 8200 ng·h/mL | 3600 ng/mL | 31000 ng·h/mL
2 | O=C(O)CCn1cccc(-c2cc(NCc3ccc(Cl)s3)[nH]n2)c1=O [Compound 2, 3-[3-(5-{[(5-chlorothiophen-2-yl)methyl]amino}-1H-pyrazol-3-yl)-2-oxo-1,2-dihydropyridin-1-yl]propanoic acid] | ≥ 5 h | 6300 ng/mL | 850 ng·h/mL | 700 ng/mL | 1300 ng·h/mL
3 | O=C(O)Cn1cccc(-c2cc(NCc3ccc(Cl)s3)[nH]n2)c1=O [Compound 3, 2-[3-(5-{[(5-chlorothiophen-2-yl)methyl]amino}-1H-pyrazol-3-yl)-2-oxo-1,2-dihydropyridin-1-yl]acetic acid] | ≥ 5 h | 7200 ng/mL | 2200 ng·h/mL | – | –
4 | CC(C)(C)C(=O)n1nc(-c2cccn(CC(=O)O)c2=O)cc1NCc1ccc(Cl)s1 [Compound 4, 2-[3-(5-{[(5-chlorothiophen-2-yl)methyl]amino}-1-(2,2-dimethylpropanoyl)-1H-pyrazol-3-yl)-2-oxo-1,2-dihydropyridin-1-yl]acetic acid] | 3 h | 9500 ng/mL | 6200 ng·h/mL | 1500 ng/mL | 15000 ng·h/mL
5 | CC(C)(C)C(=O)n1nc(-c2cccn(CCCC(=O)O)c2=O)cc1NCc1ccc(Cl)s1 [Compound 5, 4-[3-(5-{[(5-chlorothiophen-2-yl)methyl]amino}-1-(2,2-dimethylpropanoyl)-1H-pyrazol-3-yl)-2-oxo-1,2-dihydropyridin-1-yl]butanoic acid] | 1.13 h | – | – | – | –
6 | CC(C)(C)C(=O)n1nc(-c2cccn(CCC(N)=O)c2=O)cc1NCc1ccc(Cl)s1 [Compound 8, 3-[3-(5-{[(5-chlorothiophen-2-yl)methyl]amino}-1-(2,2-dimethylpropanoyl)-1H-pyrazol-3-yl)-2-oxo-1,2-dihydropyridin-1-yl]propanamide] | 1.13 h | 1700 ng/mL | 530 ng·h/mL | – | –
7 | CC(C)(N)Cn1cccc(-c2cc(NCc3ccc(Cl)s3)n(C(=O)c3ccoc3)n2)c1=O [Compound 9, 1-(2-amino-2-methylpropyl)-3-(5-{[(5-chlorothiophen-2-yl)methyl]amino}-1-(furan-3-carbonyl)-1H-pyrazol-3-yl)-1,2-dihydropyridin-2-one] | 1.13 h | – | – | – | –
8 | CCC(C)(C)C(=O)n1nc(-c2cccn(CCC(=O)O)c2=O)cc1NCc1ccc(Cl)s1 [Compound 11, 3-[3-(5-{[(5-chlorothiophen-2-yl)methyl]amino}-1-(2,2-dimethylbutanoyl)-1H-pyrazol-3-yl)-2-oxo-1,2-dihydropyridin-1-yl]propanoic acid] | ≥ 5 h | 7400 ng/mL | 3900 ng·h/mL | – | –
9 | O=C(O)CCn1cccc(-c2cc(NCc3ccc(Cl)s3)n(C(=O)c3ccoc3)n2)c1=O [Compound 12, 3-[3-(5-{[(5-chlorothiophen-2-yl)methyl]amino}-1-(furan-3-carbonyl)-1H-pyrazol-3-yl)-2-oxo-1,2-dihydropyridin-1-yl]propanoic acid] | 3 h | 4200 ng/mL | 1000 ng·h/mL | – | –
